We go through 16 compounds from PubChem BioAssay (NCI).

The TGI is the concentration giving total growth inhibition.

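96-well plates; 48 h exposure; 5 concentrations. Endpoints by linear interpolation between flanking doses. Not reached: highest tested concentration assigned. TGI denotes the concentration required for complete inhibition of growth.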

Common to all, as to experiment: DTP human tumour cell line panel, 48 h
The test system of experiment [1] is NCI-H522 lung.
For experiment [2], the system named is K-562 leukemia.
The subject of experiment [3] is MDA-MB-231 breast.
Experiment [4] has as its system MCF7 breast.
Experiment [5] has as its system IGROV1 ovarian.
The subject of experiment [6] is PC-3 prostate.
Experiment [7] deals with SF-268 CNS.
The subject of experiment [8] is HCT-15 colon.
The test system of experiment [9] is SF-539 CNS.
Experiment [10] relates to HCC-2998 colon.
The test system of experiment [11] is BT-549 breast.
Experiment [12] relates to 786-0 renal.
For experiment [13], the system named is CAKI-1 renal.

For the compound `COC(=O)c1c([N+](=O)[O-])ncn1[C@H]1OC[C@@H](OC(C)=O)[C@@H](OC(C)=O)[C@@H]1OC(C)=O`, the concentration for total growth inhibition (TGI) in [1], in [2], in [3], in [4], in [5] and in [6] was over 100 µM each time. The TGI in [7], in [8], in experiment [9], in [10], in [11] and in experiment [12] was over 100 µM each time. In [13], this compound displayed a TGI of over 100 µM.

For `COc1ccc(C(=O)C#Cc2cn(C3CC(O)C(CO)O3)c(=O)[nH]c2=O)cc1` (stereo not drawn), the TGI in [1] is 24.5 µM; in [2], over 100 µM; in [3] it was over 100 µM; in experiment [4], over 100 µM; in experiment [5] it was over 100 µM; in [6], over 100 µM. The TGI in experiment [7] was over 100 µM; in [8], over 100 µM; in experiment [9], 45.1 µM; in [10], over 100 µM; in experiment [11], 40.4 µM; in experiment [12], over 100 µM. The same compound displayed a TGI in experiment [13] of over 100 µM.

For the compound `CCOC1CN=C(Nc2cccc3ccccc23)S1` (stereo not drawn), the total growth inhibition concentration (TGI) in experiment [1], in experiment [2], in [3], in experiment [4], in experiment [5] and in [6] was over 10 µM each time. Further, the TGI in experiment [7], in experiment [8], in experiment [9], in experiment [10], in experiment [11] and in experiment [12] was over 10 µM in each case. The compound also had a TGI in experiment [13] of over 10 µM.

`CN(C)C(C1=C(O)C(c2ccccc2)N(c2ccccc2)C1=O)N1CCOCC1` (stereo not drawn): the TGI in [1], in [2], in experiment [3], in [4], in experiment [5] and in experiment [6] was over 10 µM in each case. Further, the TGI in experiment [7], in experiment [8], in [9], in [10], in [11] and in experiment [12] was over 10 µM throughout. Moreover, in experiment [13], the TGI is over 10 µM.

Take `Cc1ccc(CC2(C(=O)O)Cc3ccc(C)cc3C2)cc1` (stereo not drawn): the total growth inhibition concentration (TGI) in experiment [1], in experiment [2], in [3], in experiment [4], in experiment [5] and in experiment [6] was over 100 µM throughout. Besides, the TGI in [7], in [8], in experiment [9], in experiment [10], in experiment [11] and in [12] was over 100 µM throughout. The compound further had a total growth inhibition concentration (TGI) in experiment [13] of over 100 µM.

In the case of `CC[C@]12C=CCN3CC[C@@]4(c5cc(N=O)c(OC)cc5N(C)[C@H]4[C@@](O)(C(=O)OC)[C@@H]1OC(C)=O)[C@@H]32`, the TGI in experiment [1] was 36.5 µM; in [2], over 100 µM; in [3] it was over 100 µM; in [4], over 100 µM; in [5] it was over 100 µM; in experiment [6], over 100 µM. For the same compound, the TGI is over 100 µM in experiment [7]; over 100 µM in experiment [8]; 66.5 µM in [9]; over 100 µM in experiment [10]; over 100 µM in experiment [11]; over 100 µM in experiment [12]. Further, the total growth inhibition concentration (TGI) in [13] is over 100 µM.

Consider `O=c1c2cc(-c3ccccc3)cnc2sn1-c1ccc(Br)cc1`, for which the TGI in [1], in experiment [2], in experiment [3], in experiment [4], in [5] and in experiment [6] was over 100 µM each time. Further, the concentration for total growth inhibition (TGI) in experiment [7], in experiment [8], in experiment [9], in experiment [10], in experiment [11] and in experiment [12] was over 100 µM in each case. The same compound showed a TGI in experiment [13] of over 100 µM.

Regarding `Cc1ccc(CC(Cc2ccccc2C)C(=O)O)c(C(=O)O)c1` (stereo not drawn), the concentration for total growth inhibition (TGI) in [1], in experiment [2], in experiment [3], in experiment [4], in experiment [5] and in experiment [6] was over 100 µM in each case. Besides, the concentration for total growth inhibition (TGI) in experiment [7], in experiment [8], in [9], in experiment [10], in [11] and in experiment [12] was over 100 µM throughout. Moreover, in [13], the TGI was over 100 µM.

`COc1ccc(N=c2oc3ccccc3cc2C(N)=O)cc1`: the TGI was 93.1 µM in experiment [1]; over 100 µM in experiment [2]; over 100 µM in [3]; 87.7 µM in experiment [4]; over 100 µM in experiment [5]; over 100 µM in experiment [6]. Moreover, the TGI in experiment [7] is 42.6 µM; in experiment [8], over 100 µM; in [9] it was 63.6 µM; in experiment [10], over 100 µM; in [11], over 100 µM; in [12], 68.8 µM. For the same compound, the TGI in [13] was found to be 32.4 µM.

`CNC(=O)C(C)NC(=O)C(Cc1ccccc1)NC(=O)c1ccccc1` (stereo not drawn): the TGI in [1], in experiment [2], in experiment [3], in experiment [4], in experiment [5] and in experiment [6] was over 100 µM in each case. Besides, the concentration for total growth inhibition (TGI) in [7], in experiment [8], in experiment [9], in experiment [10], in experiment [11] and in experiment [12] was over 100 µM in each case. The TGI in experiment [13] is over 100 µM.

Consider `CCOC(=O)C(C(=O)OCC)=C1SC(=Nc2ccccc2)C(=Nc2ccccc2)N1c1ccccc1`, for which the TGI in [1], in experiment [2], in experiment [3], in experiment [4], in experiment [5] and in experiment [6] was over 100 µM each time. In addition, the TGI in experiment [7], in experiment [8], in experiment [9], in [10], in experiment [11] and in experiment [12] was over 100 µM each time. In experiment [13], this compound came in with a TGI of over 100 µM.

In the case of `CCOC(=O)c1nc2cc(C(F)(F)F)ccc2nc1Oc1ccc(C#N)cc1`, the TGI in experiment [1], in [2], in experiment [3], in [4], in experiment [5] and in experiment [6] was over 100 µM each time. Moreover, the TGI in [7], in [8], in experiment [9], in [10], in experiment [11] and in experiment [12] was over 100 µM throughout. This compound also displayed a TGI in experiment [13] of over 100 µM.

Take `NC1N=C(c2ccc(Cl)cc2)C2=C(N1)c1ccccc1CC2` (stereo not drawn): the TGI was 36.2 µM in [1]; over 26.1 µM in experiment [2]; over 100 µM in [3]; over 46.8 µM in experiment [4]; over 57.1 µM in [5]; over 100 µM in experiment [6]. Also, the TGI in experiment [7] was over 100 µM; in [8], over 100 µM; in [9], over 100 µM; in experiment [10], 18.5 µM; in experiment [11], over 100 µM; in experiment [12], over 73.1 µM. In experiment [13], the TGI is over 100 µM.

Consider `COc1cc(OC)cc(OCc2nc3cc(C(F)(F)F)ccc3nc2-c2ccccc2)c1`, for which the TGI in experiment [1], in [2], in [3], in [4], in experiment [5] and in experiment [6] was over 100 µM in each case. The TGI in experiment [7], in experiment [8], in experiment [9], in experiment [10], in experiment [11] and in [12] was over 100 µM in each case. In experiment [13], this compound had a TGI of over 100 µM.

`CCOCCOCCOCc1nc(C#N)c(N)o1`: the total growth inhibition concentration (TGI) in [1], in experiment [2], in experiment [3], in [4], in experiment [5] and in [6] was over 100 µM throughout. Moreover, the TGI in [7], in experiment [8], in [9], in [10], in experiment [11] and in [12] was over 100 µM in each case. In experiment [13], this compound came in with a TGI of over 100 µM.

As for `O=c1ccc2ccc(OP(=O)(O)O)cc2o1`, the TGI in [1], in experiment [2], in experiment [3], in experiment [4], in experiment [5] and in experiment [6] was over 100 µM in each case. Further, the TGI in experiment [7], in experiment [8], in [9], in experiment [10], in [11] and in experiment [12] was over 100 µM each time. The compound also registered a TGI in experiment [13] of over 100 µM.
